Laboratory results taken from patent US7544365B2, “TRPV1+ sensory neurons control of β-cells stress and islet inflammation in diabetes” (priority 2006, dated 2009).
“Also recorded” adds a separate entry of the source.

Tests used:
[1] = system: islet T cell infiltration; experiment: Intra-arterial pancreas injection of substance P in prediabetic NOD mice (insulitis); assay type: in vivo
Protocol: (§1) Animals were anaesthetized with isoflurane and the aorta developed with minimal trauma to ligate above and below the celiac artery. A 32G needle was used to inject Evans Blue (3 mg/kg/100 μl; Sigma), substance P (2 nmol/100 μl; Sigma) or saline into the aorta just prior to the celiac branching. Ligations are released after closure of the injection site. For insulitis studies, pancreata from treated mice were obtained 48-72 hr after pancreas injection treatment and histology performed. In diabetes reversal experiments, newly diagnosed NOD female mice were treated with either saline or substance P and followed without exogenous insulin treatment.
Frozen murine pancreas sections were fixed in 4% paraformaldehyde, blocked with 5% normal donkey serum (Jackson), and stained with polyclonal rat or goat antibodies against GFAP (Signet Pathology Systems, Dedham, Mass.), polyclonal rabbit anti-TRPV1 (Oncogene) or guinea-pig antibody against insulin (DAKO, Carpinteria, Calif.). Bound antibodies were detected with biotinylated donkey anti-guinea pig or rat IgG (1:200, Jackson), Streptavidin AlexaFluor 546 or 633 (1:300, Molecular Probes, Eugene, Oreg.), and FITC conjugated donkey anti-rabbit IgG (1:25, Jackson). […] TRPV1 staining was performed on snap-frozen sections of NOD female pancreas with an overnight incubation of primary antibody at 4° C. […]

[2] = Diabetes reversal after pancreatic i.a. substance P in newly diabetic NOD mice; assay type: in vivo
Protocol: as §1

[3] = system: activated CD4+ NOD T cells; experiment: sP response of activated CD4+ NOD T cells in vitro (proliferation); assay type: cell-based, NOD mice
Protocol: Splenocytes from 3- to 24 wk-old NOD females were cultured (4×10^5 cells/well) in AIM V serum-free medium (Life Technologies) containing antigen (0.002-50 μg/ml), baculovirus-derived human GAD65 (Diamyd Diagnostics, Stockholm, Sweden), human GFAP (>90% pure) and bovine S100b (>98% pure; Calbiochem, San Diego, Calif.) were purchased, other antigens were previously generated and described (Winer et al., 2003). After 72 hrs, cultures were pulsed (1 μCi, [3H]thymidine/18 hrs) and counted by liquid scintillation. Lymph node assays were similar, but used 2×10^5 lymph node cells plus 2×10^5 irradiated (1,100 rad), syngeneic splenocytes/well. To normalize pooled data, we calculated a stimulation index (SI, cpm antigen stimulated/medium control), background counts were <1500 cpm in spleen cell and <1000 cpm in lymph node cultures. In some proliferation studies, plate-bound anti-CD3 (0.001-3 μg/ml; BD PharMingen) and anti-CD28 (0.2 μg/ml; BD PharMingen) were used to stimulate CD4+ T-cells negatively selected from NOD β2m^null splenocytes in the presence of substance P.

[4] = system: BDC2.5 T cell receptor transgenic T cells; experiment: CFSE dye dilution in vivo clonal expansion of BDC2.5 T cells in pancreatic lymph nodes; design: species or system NOD mice
Protocol: For dye dilution in vivo clonal expansion studies, splenic CD4+ T-cells from NOD-BDC2.5 females were isolated by negative selection (Stemcell Technologies, Vancouver, Canada) and incubated with 2.5 μM CFSE (10′/37° C., Molecular Probes, Eugene, Oreg.) in PBS. Prediabetic (12 wk) NOD females pretreated 12 hr prior with substance P or saline, were injected i.v. with 3×10^6 CFSE-labeled CD4+ T-cells in sterile PBS.
Lymphocytes from thymus, pancreatic/axillary lymph nodes and spleen were stained with FITC, PE, and APC conjugated antibodies to CD3, CD4, CD8, CD44, CD25, CD69 CD62L and FoxP3 (BD Pharmingen, not all combinations are shown). NK-1R and Vβ4 antibodies were obtained from Novus Biologicals (Littleton, Colo.) and Cedarlane (Hornby, Canada), respectively. Live events were collected based on forward- and side-scatter profiles on a FACScan flow cytometer (BD) and analyzed using FlowJo software (Stanford University).

TRPV1^+ sensory neurons = experiment: Glucose challenge and insulin tolerance after capsaicin removal of TRPV1^+ sensory neurons; assay type: in vivo, NOD.scid / NOD mice
Source text: We compared measures of β-cell function in untreated and in capsaicin treated NOD.scid mice, and in C57/BL6J (‘B6’) and B6.TRPV1^−/− mice, the latter with a normal complement of sensory afferent neurons but absent TRPV1 expression (Caterina et al., 2000). NOD.scid mice were used to ascertain absence of lymphoid islet infiltration in NOD experiments, CD1 mice provided controls (FIGS. 17A-17C).
(§2) NOD, NOD.scid, BDC2.5 TCR transgenic NOD mice (‘BDC2.5-NOD’), NOD-β2m^null, C57BL/6 (‘B6’), B6-TRPV1^null, NOR NOD×B6 Idd4 congenic mice (NOD.B6-(D11Nds1-D11Mit325)/DelJ) were obtained from the Jackson Laboratories (Bar Harbor, Me.) and maintained under approved protocols in our vivarium (NOD female diabetes incidence: 85-90%). […] Control mice (NOD^ctrl) received 20 μL vehicle (10% ethanol, 10% Tween, 80% saline). In adoptive transfer experiments, splenocytes from 4-6 diabetic NOD females were pooled and 10^7 cells/mouse were injected (100 μL i.v.) into irradiated (300 rad) 6- to 8 wk-old NOD.scid recipients. Diastix strips were used to screen for glucosuria (Bayer HealthCare), diabetes was confirmed by diabetic blood glucose measurements on 2 consecutive days (>13.8 mM/l; SureStep, Life Technologies Inc., Burnaby, British Columbia, Canada).

TRPV1 = experiment: Capsaicin-evoked Ca^2+ responses in dorsal root ganglion neurons; assay type: cell-based, NOD and NOR mice; conditions: NOD DRG neurons compared with NOR, p<0.05
Protocol: Dorsal root ganglia from male NOD, NOR mice and NOD.B6.Idd4-congenic (5-10 wk) were isolated and cultured in F12 medium (Invitrogen) with 10 ng/mL nerve- and 10 ng/mL glial-derived nerve growth factor. Cultures were used 3-5 d after plating. The Ca^2+-sensitive fluorophore, fura-2 (Molecular Probes, Eugene, Oreg.), was used to assess [Ca^2+]i by ratiometric measurement. Excitation (340 and 380 nm) was generated by a xenon arc lamp and passed through a high-speed, computer-controlled, variable-wavelength monochromator. This light was transmitted to the recording dish via a fiberoptic cable. Emitted light was directed through a 510 nm bandpass filter and detected by an intensified CCD camera. Image data were analyzed off-line. Each 340 nm image was divided, on a pixel-by-pixel basis, by the corresponding 380 nm image, producing a ratio. Averaged values of the ratios within each region of interest were plotted as a function of time.

TRPV1^+ neurons [5] = experiment: Neonatal capsaicin treatment of diabetes-prone NOD mice: insulitis and diabetes development; assay type: in vivo
Source text: Using immunofluorescence, it was observed that murine islets are associated with meshworks of TRPV1^+ fibers (FIG. 1a). TRPV1 was undetectable in endocrine islet cells by immunofluorescence (FIG. 1a, b) and by RT-PCR of purified NOD islets (FIG. 9). based on this evidence of islet innervation by TRPV1^+ primary afferent sensory neurons, we investigated their possible role in T1D pathogenesis, using neonatal treatment of diabetes-prone NOD mice with capsaicin to permanently remove these neurons (Caterina and Julius, 2001; Jancso et al., 1977). Two day-old NOD mice received capsaicin (50 mg/kg, s.c.) or vehicle (NOD^caps, NOD^ctrl). […] We confirmed the lack of TRPV1 expression in NOD^caps mice, using immunofluorescence (FIG. 1a, b, TRPV1 green), Western blots (8, 12 & 20 wk), and standard hot-plate testing in randomly selected 5-6 wk old or in diabetic animals (FIG. 1c).
as §2
Frozen murine pancreas sections were fixed in 4% paraformaldehyde, blocked with 5% normal donkey serum (Jackson), and stained with polyclonal rat or goat antibodies against GFAP (Signet Pathology Systems, Dedham, Mass.), polyclonal rabbit anti-TRPV1 (Oncogene) or guinea-pig antibody against insulin (DAKO, Carpinteria, Calif.). Bound antibodies were detected with biotinylated donkey anti-guinea pig or rat IgG (1:200, Jackson), Streptavidin AlexaFluor 546 or 633 (1:300, Molecular Probes, Eugene, Oreg.), and FITC conjugated donkey anti-rabbit IgG (1:25, Jackson). […] TRPV1 staining was performed on snap-frozen sections of NOD female pancreas with an overnight incubation of primary antibody at 4° C. To score insulitis severity, pancreata were fixed in 10% buffered formalin for a minimum of 24 hr. Histological sections were stained with hematoxylin and eosin and three blinded observers scored at the following scale: 0, normal islet; 1, peri-insulitis or encroachment of <25% of the islet surface area; 2, infiltration of 25-50% of the islet surface area; 3, infiltration of >50% of the islet surface area (Winer et al., 2003). Spleen and lymph node cells were stained with either 2 nM PE-conjugated NRP-V7/H-2K^d or TUM/H-2K^d tetramers, the latter a negative control, in FACS buffer (1% v/v FBS, 0.1% w/v NaN3 in PBS) at 4° C. for 1 hr, followed by staining with FITC-conjugated anti-CD8 mAb (clone 53-6.7; […]) and PerCP-conjugated anti-B 220 Ab (clone RA6-3B2; […], both from BD Pharmingen). Tetramer positivity was analyzed on gated CD8+B220− cells and reported as percentage of cells binding the NRP-V7/H-2K^d tetramer minus the percentage of cells binding the negative control, TUM/H-2K^d tetramer.

TRPV1^+ neurons [6] = experiment: Systemic and pancreatic T cell development and function in NOD^caps versus NOD^ctrl mice; assay type: in vivo
Protocol: Delayed type hypersensitivity (DTH): […] Abdomens were shaved and 100 μl of the allergen were applied. 6 d later, the baseline thickness of right ears were measured by gauge before application of 10 μl 1% TNCB in oil or carrier only. Ear thickness was re-measured in sensitized and naïve animals 24 hr later. […] Calbiochem, San Diego, Calif.) were purchased, other antigens were previously generated and described (Winer et al., 2003). After 72 hrs, cultures were pulsed (1 μCi, [3H]thymidine/18 hrs) and counted by liquid scintillation. Lymph node assays were similar, but used 2×10^5 lymph node cells plus 2×10^5 irradiated (1,100 rad), syngeneic splenocytes/well. […] Bound antibodies were detected with biotinylated donkey anti-guinea pig or rat IgG (1:200, Jackson), Streptavidin AlexaFluor 546 or 633 (1:300, Molecular Probes, Eugene, Oreg.), and FITC conjugated donkey anti-rabbit IgG (1:25, Jackson). […] Histological sections were stained with hematoxylin and eosin and three blinded observers scored at the following scale: 0, normal islet; 1, peri-insulitis or encroachment of <25% of the islet surface area; 2, infiltration of 25-50% of the islet surface area; 3, infiltration of >50% of the islet surface area (Winer et al., 2003). […] Live events were collected based on forward- and side-scatter profiles on a FACScan flow cytometer (BD) and analyzed using FlowJo software (Stanford University).

[7] = systemic (i.v.) injection of the same sP dose
[8] = mice that failed to reverse hyperglycemia, i.a. sP

substance P
islets free of T cell infiltration ([1]; prediabetic NOD, 12 wk of age, within 2d after i.a. sP injection (2 nmoles/kg)): about 80%
effect on islet T cell infiltration, systemic injection [1, 7]: did not have similar effects
body weight [2, 8]: preventing the progressive loss of body weight
insulin sensitivity in non-responding mice [2, 8]: improved insulin sensitivity
normalization of blood glucose levels ([2]; newly diabetic NOD mice, 2-3 d after diagnosis, pancreatic i.a. sP, without insulin therapy): over half of the i.a. injected diabetics normalized blood glucose levels
insulin sensitivity ([2]; raising pancreatic sP levels, diabetic NOD mice): dramatically enhanced insulin sensitivity
time fasting blood glucose remained at near normal levels ([2]; responding mice): 2-8 wk
cell proliferation and survival [3]: abrogated cell proliferation and survival in a dose-dependent fashion
expansion in pancreatic lymph nodes of BDC2.5 cells pretreated in vitro ([4]; cells in vitro pretreated with sP overnight, p=0.0045): reduced the ability of these cells to expand in pancreatic lymph nodes
cellularity and clonal expansion of BDC2.5 T cells in pancreatic lymph nodes ([4]; pancreatic i.a. sP 12-16 hr before transfer, analyzed 4 days later, dye dilution, p=0.003): reduced cellularity and clonal expansion
expansion of BDC2.5 T cells in pancreatic lymph nodes, systemic injection [4, 7]: had no effect on expansion

COc1cc(CNC(=O)CCCC/C=C/C(C)C)ccc1O [capsaicin]
serum glucose levels after i.p. glucose challenge (TRPV1^+ sensory neurons; 10-12 wk old NOD.scid^caps versus NOD.scid^ctrl, p=0.004): significantly reduced
insulin production after glucose challenge (TRPV1^+ sensory neurons; NOD.scid^caps versus NOD.scid^ctrl): significantly less insulin production
drug concentration required for maximum Ca^2+ response, NOD versus NOR DRG neurons (TRPV1): 10 fold
tolerability of neonatal capsaicin treatment (TRPV1^+ neurons [5]; 50 mg/kg s.c. in 2 day-old mice): viable, fertile, without abnormalities in growth or gross tissue structure, including pancreas; also recorded: no signs of adverse effects
islets free of lymphocytes (TRPV1^+ neurons [5]; NOD^caps mice (capsaicin 50 mg/kg s.c. at 2 days old), by age 20 wk): More than 70%
islet infiltrations compared with NOD^ctrl (TRPV1^+ neurons [5]; NOD^caps mice, p<0.0001): significantly reduced
reduction in final diabetes incidence (TRPV1^+ neurons [5]; neonatal capsaicin treatment, 35 wk plus next 12 wk, n=52 mice/group, p<0.0001): about 80%
onset of diabetes (TRPV1^+ neurons [5]; neonatal capsaicin treatment, p=0.0002): delayed the onset of diabetes
fraction of NOD^caps mice in which infiltrated islets were entirely absent (TRPV1^+ neurons [5]; serial sectioning): one third
regulatory T cell compartment in pancreatic lymph nodes (TRPV1^+ neurons [6]; NOD^caps mice, beyond 12-16 wk of age): maintained their regulatory T cell compartment
CD8+ and activated CD8+ CD69+ effector T lymphocytes in pancreatic lymph node tissue (TRPV1^+ neurons [6]; NOD^caps versus NOD^ctrl): significantly reduced proportions and absolute numbers
